Test results: patent US9458135B2, “Dihydroquinoline-2-one derivatives” (Hoffmann-La Roche Inc., priority 2014, dated 2016)

What was measured:
human CYP11B2 = human CYP11B2 (Homo sapiens (Human), UniProt P19099); test: G-402 cellular enzyme assay, human CYP11B2 (aldosterone release, HTRF); type: cell-based; settings: G-402 cells expressing human CYP11B2; 1 μM Deoxycorticosterone
Description: (§1) Herein we identified the use of the G-402 cell line as a host cell to ectopically express (transiently or stably) enzymes of the CYP11 family. Specifically we developed stable G-402 cells expressing ectopically human CYP11B1, human CYP11B2, human CYP11A1, cynmolgus CYP11B1 or cynomolgus CYP11B2 enzyme activity. Importantly the identified cell line G-402 expresses co-factors (adrenodoxin and adrenodoxin reductase) important for the activity of the CYP11 family and no relevant enzyme activity of the CYP11 family (in comparison to H295R cells) was detected in these cells. Therefore the G-402 cell line is uniquely suited as a host cell for the ectopic expression of enzymes from the CYP11 family.
(§2) The expression plasmids contains the ORF for either huma/cyno CYP11B1 or CYP11B2 under the control of a suitable promoter (CMV-promoter) and a suitable resistance marker (neomycin). Using standard techniques the expression plasmid is transfected into G-402 cells and these cells are then selected for expressing the given resistance markers. Individual cell-clones are then selected and assessed for displaying the desired enzymatic activity using 11-Deoxycorticosterone (Cyp11B2) or 11-Deoxycortisol (Cyp11B1) as a substrate.
(§3) G-402 cells expressing CYP11 constructs were established as described above and maintained in McCoy's 5a Medium Modified, ATCC Catalog No. 30-2007 containing 10% FCS and 400 μg/ml G418 (Geneticin) at 37° C. under an atmosphere of 5% CO2/95% air. Cellular enzyme assays were performed in DMEM/F12 medium containing 2.5% charcoal treated FCS and appropriate concentration of substrate (0.3-10 uM 11-Deoxycorticosterone, 11-Deoxycortisol or Corticosterone). For assaying enzymatic activity, cells were plated onto 96 well plates and incubated for 16 h. An aliquot of the supernatant is then transferred and analyzed for the concentration of the expected product (Aldosterone for CYP11B2; Cortisol for CYP11B1). The concentrations of these steroids can be determined using HTRF assays from CisBio analyzing either Aldosterone or Cortisol.
(§4) Inhibition of the release of produced steroids can be used as a measure of the respective enzyme inhibition by test compounds added during the cellular enzyme assay. The dose dependent inhibition of enzymatic activity by a compound is calculated by means of plotting added inhibitor concentrations (x-axes) vs. measured steroid/product level (y-axes). The inhibition is then calculated by fitting the following 4-parameter sigmoidal function (Morgan-Mercer-Flodin (MMF) model) to the raw data points using the least squares method:
(§5) [formula] wherein, A is the maximum y value, B is the EC50 factor determined using XLFit, C is the minimum y value and D is the slope value.
(§6) EC50 values for compounds claimed herein were tested with the G402-based assay system described. Cyp11B2 enzyme activity was tested in presence of 1 μM Deoxycorticosterone and variable amounts of inhibitors; Cyp11B1 enzyme activity was tested in presence of 1 μM Deoxycortisol and variable amounts of inhibitors.

human CYP11B1 = human CYP11B1 (Homo sapiens (Human), UniProt P15538); test: G-402 cellular enzyme assay, human CYP11B1 (cortisol release, HTRF); type: cell-based; settings: G-402 cells expressing human CYP11B1; 1 μM Deoxycortisol
Sequence of human CYP11B1 (P15538 25-503): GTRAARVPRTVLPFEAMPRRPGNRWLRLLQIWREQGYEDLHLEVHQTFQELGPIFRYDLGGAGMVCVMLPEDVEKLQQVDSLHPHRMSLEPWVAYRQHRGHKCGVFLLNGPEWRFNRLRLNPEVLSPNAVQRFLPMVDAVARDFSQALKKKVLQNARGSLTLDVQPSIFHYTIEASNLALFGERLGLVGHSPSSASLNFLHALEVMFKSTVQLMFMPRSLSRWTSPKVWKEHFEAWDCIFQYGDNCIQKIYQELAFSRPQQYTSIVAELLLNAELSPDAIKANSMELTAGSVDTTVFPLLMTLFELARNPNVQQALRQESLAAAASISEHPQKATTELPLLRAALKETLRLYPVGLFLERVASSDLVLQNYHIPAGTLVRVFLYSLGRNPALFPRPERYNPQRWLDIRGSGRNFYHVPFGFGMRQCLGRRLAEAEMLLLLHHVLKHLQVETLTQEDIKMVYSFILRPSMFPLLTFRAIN
Description: as §1, §2, §3, §4, §5, §6

Sequence of human CYP11B2 (P19099 25-503): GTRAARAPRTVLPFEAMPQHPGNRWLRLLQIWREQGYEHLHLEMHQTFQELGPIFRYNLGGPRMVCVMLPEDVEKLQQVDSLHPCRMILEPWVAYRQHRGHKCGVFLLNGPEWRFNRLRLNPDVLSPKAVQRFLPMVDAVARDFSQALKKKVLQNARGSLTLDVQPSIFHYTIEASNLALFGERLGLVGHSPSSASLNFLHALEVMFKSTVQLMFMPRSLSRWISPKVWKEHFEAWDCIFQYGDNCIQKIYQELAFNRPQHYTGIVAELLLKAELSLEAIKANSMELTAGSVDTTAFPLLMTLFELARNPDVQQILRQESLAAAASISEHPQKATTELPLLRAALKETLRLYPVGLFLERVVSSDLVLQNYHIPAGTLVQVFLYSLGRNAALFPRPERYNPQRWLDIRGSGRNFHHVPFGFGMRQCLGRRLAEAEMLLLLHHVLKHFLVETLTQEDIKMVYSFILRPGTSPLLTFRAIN

SMILES	EC50 (human CYP11B2) [nM]	EC50 (human CYP11B1) [nM]
CN1C(=O)CCc2cc(-c3cncc(COc4cccc(Cl)n4)c3)ccc21 [Example 1, 6-[5-(6-Chloro-pyridin-2-yloxymethyl)-pyridin-3-yl]-1-methyl-3,4-dihydro-1H-quinolin-2-one]	0.2	9.1
CN1C(=O)CCc2cc(-c3cncc(COc4ccc(F)cn4)c3)ccc21 [Example 2, 6-[5-(5-Fluoro-pyridin-2-yloxymethyl)-pyridin-3-yl]-1-methyl-3,4-dihydro-1H-quinolin-2-one]	0.2	6.3
Cc1cccc(OCc2cncc(-c3ccc4c(c3)CCC(=O)N4C)c2)n1 [Example 3, 1-Methyl-6-[5-(6-methyl-pyridin-2-yloxymethyl)-pyridin-3-yl]-3,4-dihydro-1H-quinolin-2-one]	0.1	4.8
Cc1cc(OCc2cncc(-c3ccc4c(c3)CCC(=O)N4C)c2)nc(C(F)(F)F)c1 [Example 4, 1-Methyl-6-[5-(4-methyl-6-trifluoromethyl-pyridin-2-yloxymethyl)-pyridin-3-yl]-3,4-dihydro-1H-quinolin-2-one]	0.4	3.6
Cc1ccnc(OCc2cncc(-c3ccc4c(c3)CCC(=O)N4C)c2)c1 [Example 5, 1-Methyl-6-[5-(4-methyl-pyridin-2-yloxymethyl)-pyridin-3-yl]-3,4-dihydro-1H-quinolin-2-one]	0.1	1.7
CN1C(=O)CCc2cc(-c3cncc(COc4ccc(Cl)cn4)c3)ccc21 [Example 6, 6-[5-(5-Chloro-pyridin-2-yloxymethyl)-pyridin-3-yl]-1-methyl-3,4-dihydro-1H-quinolin-2-one]	0.1	1.9
CN1C(=O)CCc2cc(-c3cncc(COc4ccccn4)c3)ccc21 [Example 7, 1-Methyl-6-[5-(pyridin-2-yloxymethyl)-pyridin-3-yl]-3,4-dihydro-1H-quinolin-2-one]	0.2	8.7
CN1C(=O)CCc2cc(-c3cncc(COc4ncccc4C(F)(F)F)c3)ccc21 [Example 8, 1-Methyl-6-[5-(3-trifluoromethyl-pyridin-2-yloxymethyl)-pyridin-3-yl]-3,4-dihydro-1H-quinolin-2-one]	2.3	72.8
Cc1nccc(OCc2cncc(-c3ccc4c(c3)CCC(=O)N4C)c2)n1 [Example 9, 1-Methyl-6-[5-(2-methyl-pyrimidin-4-yloxymethyl)-pyridin-3-yl]-3,4-dihydro-1H-quinolin-2-one]	0.1	4.2
CN1C(=O)CCc2cc(-c3cncc(COc4ccnc(C(F)(F)F)n4)c3)ccc21 [Example 10, 1-Methyl-6-[5-(2-trifluoromethyl-pyrimidin-4-yloxymethyl)-pyridin-3-yl]-3,4-dihydro-1H-quinolin-2-one]	0.3	12.3
CN1C(=O)CCc2cc(-c3cncc(COc4cnc(Cl)nc4)c3)ccc21 [Example 11, 6-[5-(2-Chloro-pyrimidin-5-yloxymethyl)-pyridin-3-yl]-1-methyl-3,4-dihydro-1H-quinolin-2-one]	0.1	0.8
CN1C(=O)CCc2cc(-c3cncc(COc4ncccn4)c3)ccc21 [Example 12, 1-Methyl-6-[5-(pyrimidin-2-yloxymethyl)-pyridin-3-yl]-3,4-dihydro-1H-quinolin-2-one]	3.6	101
CN1C(=O)CCc2cc(-c3cncc(CSc4nc5ccccc5o4)c3)ccc21 [Example 13, 6-[5-(Benzooxazol-2-ylsulfanylmethyl)-pyridin-3-yl]-1-methyl-3,4-dihydro-1H-quinolin-2-one]	0.3	0.9
Cc1cccc(SCc2cncc(-c3ccc4c(c3)CCC(=O)N4C)c2)n1 [Example 14, 1-Methyl-6-[5-(6-methyl-pyridin-2-ylsulfanylmethyl)-pyridin-3-yl]-3,4-dihydro-1H-quinolin-2-one]	0.012	0.1
CN1C(=O)CCc2cc(-c3cncc(CSc4ncccc4C(F)(F)F)c3)ccc21 [Example 15, 1-Methyl-6-[5-(3-trifluoromethyl-pyridin-2-ylsulfanylmethyl)-pyridin-3-yl]-3,4-dihydro-1H-quinolin-2-one]	0.5	14.3
CN1C(=O)CCc2cc(-c3cncc(CSc4ncccc4Cl)c3)ccc21 [Example 16, 6-[5-(3-Chloro-pyridin-2-ylsulfanylmethyl)-pyridin-3-yl]-1-methyl-3,4-dihydro-1H-quinolin-2-one]	1.4	45.7
CN1C(=O)CCc2cc(-c3cncc(COc4cc(C#N)ccn4)c3)ccc21 [Example 17, 2-[5-(1-Methyl-2-oxo-1,2,3,4-tetrahydro-quinolin-6-yl)-pyridin-3-ylmethoxy]-isonicotinonitrile]	0.2	0.9
CN1C(=O)CCc2cc(-c3cncc(COc4cccc(F)n4)c3)ccc21 [Example 18, 6-[5-(6-Fluoro-pyridin-2-yloxymethyl)-pyridin-3-yl]-1-methyl-3,4-dihydro-1H-quinolin-2-one]	0.3	7.5
CN1C(=O)CCc2cc(-c3cncc(COc4ncccc4F)c3)c(F)cc21 [Example 19, 7-Fluoro-6-[5-(3-fluoro-pyridin-2-yloxymethyl)-pyridin-3-yl]-1-methyl-3,4-dihydro-1H-quinolin-2-one]	14.1	997
CN1C(=O)CCc2cc(-c3cncc(COc4ccc(Cl)cn4)c3)c(F)cc21 [Example 20, 6-[5-(5-Chloro-pyridin-2-yloxymethyl)-pyridin-3-yl]-7-fluoro-1-methyl-3,4-dihydro-1H-quinolin-2-one]	0.1	1.6
CN1C(=O)CCc2cc(-c3cncc(COc4cccc(Cl)n4)c3)c(F)cc21 [Example 21, 6-[5-(6-Chloro-pyridin-2-yloxymethyl)-pyridin-3-yl]-7-fluoro-1-methyl-3,4-dihydro-1H-quinolin-2-one]	0.3	16.3
Cc1cccc(OCc2cncc(-c3cc4c(cc3F)N(C)C(=O)CC4)c2)n1 [Example 22, 7-Fluoro-1-methyl-6-[5-(6-methyl-pyridin-2-yloxymethyl)-pyridin-3-yl]-3,4-dihydro-1H-quinolin-2-one]	2	216
Cc1ccnc(OCc2cncc(-c3cc4c(cc3F)N(C)C(=O)CC4)c2)c1 [Example 23, 7-Fluoro-1-methyl-6-[5-(4-methyl-pyridin-2-yloxymethyl)-pyridin-3-yl]-3,4-dihydro-1H-quinolin-2-one]	0.1	4.1
Cc1cccc(OCc2cncc(-c3cc4c(cc3F)N(C)C(=O)CC4)c2C)n1 [Example 24, 7-Fluoro-1-methyl-6-[4-methyl-5-(6-methyl-pyridin-2-yloxymethyl)-pyridin-3-yl]-3,4-dihydro-1H-quinolin-2-one]	0.7	105
Cc1c(COc2cccc(Cl)n2)cncc1-c1cc2c(cc1F)N(C)C(=O)CC2 [Example 25, 6-[5-(6-Chloro-pyridin-2-yloxymethyl)-4-methyl-pyridin-3-yl]-7-fluoro-1-methyl-3,4-dihydro-1H-quinolin-2-one]	1.3	116
Cc1c(COc2ncccc2F)cncc1-c1cc2c(cc1F)N(C)C(=O)CC2 [Example 26, 7-Fluoro-6-[5-(3-fluoro-pyridin-2-yloxymethyl)-4-methyl-pyridin-3-yl]-1-methyl-3,4-dihydro-1H-quinolin-2-one]	5	866
Cc1c(COc2cccc(F)n2)cncc1-c1cc2c(cc1F)N(C)C(=O)CC2 [Example 27, 7-Fluoro-6-[5-(6-fluoro-pyridin-2-yloxymethyl)-4-methyl-pyridin-3-yl]-1-methyl-3,4-dihydro-1H-quinolin-2-one]	0.2	20.8
Cc1cccc(NC(=O)Cc2cncc(-c3ccc4c(c3)CCC(=O)N4C)c2)n1 [Example 28, 2-[5-(1-Methyl-2-oxo-1,2,3,4-tetrahydro-quinolin-6-yl)-pyridin-3-yl]-N-(6-methyl-pyridin-2-yl)-acetamide]	2.2	14.5
